Source: patent US20080138462A1, “Lactobacillus buchneri strain LN5665 and its use to improve aerobic stability of silage” (Pioneer Hi-Bred International, Inc., priority 2006, published 2008)

Assay: Aerobic stability of grass silage (PVC silos, method of Honig)
Parameters: species or system ryegrass
Description: Second cut ryegrass was harvested at PLNC. The grass was determined to have an approximate dry matter of 35%.
Inoculation: Individual strains were supplied as fresh grown overnight culture. Cultures were adjusted to a standard concentration of 5.0×10^7 CFU/mL and applied using a syringe at a rate of 2.2 mL/kg of forage. The application rate for all strains was 1.1×10^5 CFU/g forage. Propionic acid (88%) was applied at a rate of 4.4 mL/kg fresh forage.
PVC Silos: PVC silos were filled at a packing density of 0.288 kg DM/silo (100 kg DM/m^3); approximately 0.82-0.95 kg/silo. Silos were air infused for 24 hours on days 28 and 42, and opened after 50-60 days of ensiling.
Aerobic Stability: The method of Honig (Proc. Of the Eurobac. Conf., P. Lingvall and S. Lindgren (ed.) (12-16 Aug. 1986) Swed. Univ. of Agric. Sci. Grass and Forage Report No. 3-1990. Pp. 76-81. Uppsala, Sweden.) was used for measuring aerobic stability (see Table 1). ROT is defined as the time, in hours, for the silage to heat 1.7° C. after exposure to air. Cumm_DD is the integral value of the area between the time ROT is attained and the end of the experiment. Aerobic dry matter loss (% dry matter) was determined relating the increase in temperature and the time to energy losses occurring in the silage.

Structure (SMILES): CCC(=O)O [Propionic Acid, Propionic acid]
- Aerobic deterioration compared with control grass silages: significantly less aerobic deterioration
